The results in this text go back to patent US20120190687A1, “Pyrazinylpyrazoles” (Bayer CropScience Ag, priority 2009, published 2012).

In one series the test system is Phaedon cochleariae. Description: Phaedon test (PHAECO spray treatment). Type of series: in vivo. The conditions noted are these: 500 g/ha, Chinese cabbage discs, after 7 days. How it is done: Phaedon Test ([…] Spray Treatment) Solvent: 78.0 parts by weight of acetone • • 1.5 parts by weight of dimethylformamide Emulsifier: 0.5 part by weight of alkylaryl polyglycol ether To prepare an appropriate active ingredient preparation, 1 part by weight of active ingredient is mixed with the stated amounts of solvent and emulsifier, and the concentrate is diluted with emulsifier-containing water to the desired concentration. Discs of Chinese cabbage (Brassica pekinensis) are sprayed with an active ingredient preparation of the desired concentration and, after drying, populated with larvae of the mustard beetle (Phaedon cochleariae). After 7 days, the efficacy in % is determined. 100% means that all beetle larvae have been killed; 0% means that none of the beetle larvae have been killed.

A short description of series [1]: logP by reversed-phase HPLC (EEC Directive 79/831 Annex V.A8). The format is physicochemical. From the text:
[table] The calibration is effected with unbranched alkan-2-ones (having 3 to 16 carbon atoms) with known log P values (log P values determined on the basis of the retention times by linear interpolation between two successive alkanones).

The test system of the next series is Tetranychus urticae. Put plainly: Tetranychus test, OP-resistant (TETRUR spray treatment). The format is in vivo. Conditions: bean leaf discs, after 6 days. On the procedure: Tetranychus Test, OP-resistant (TETRUR Spray Treatment)
Solvent: 78.0 parts by weight of acetone • • 1.5 parts by weight of dimethylformamide
Emulsifier: 0.5 part by weight of alkylaryl polyglycol ether
To prepare an appropriate active ingredient preparation, 1 part by weight of active ingredient is mixed with the stated amounts of solvent and emulsifier, and the concentrate is diluted with emulsifier-containing water to the desired concentration. Discs of bean leaves (Phaseolus vulgaris) infested by all stages of the red spider mite (Tetranychus urticae) are sprayed with an active ingredient preparation of the desired concentration. After 6 days, the efficacy in % is determined. 100% means that all spider mites have been killed; 0% means that none of the spider mites have been killed.

A further series relates to Spodoptera frugiperda. Put plainly: Spodoptera frugiperda test (SPODFR spray treatment). Type of series: in vivo. The conditions noted are these: 500 g/ha, maize leaf discs, after 7 days. On the procedure:
Spodoptera frugiperda Test (SPODFR Spray Treatment) Solvent: 78.0 parts by weight of acetone • • 1.5 parts by weight of dimethylformamide Emulsifier: 0.5 part by weight of alkylaryl polyglycol ether To prepare an appropriate active ingredient preparation, 1 part by weight of active ingredient is mixed with the stated amounts of solvent and emulsifier, and the concentrate is diluted with emulsifier-containing water to the desired concentration. Discs of maize leaves (Zea mays) are sprayed with an active ingredient preparation of the desired concentration and, after drying, populated with caterpillars of the armyworm (Spodoptera frugiperda). After 7 days, the efficacy in % is determined. 100% means that all caterpillars have been killed; 0% means that none of the caterpillars have been killed.

A further series deals with Lucilia cuprina larvae. Put plainly: Lucilia cuprina test (LUCICU). The format is in vivo. The conditions noted are these: 100 ppm, treated horse meat, after 2 days. On the procedure: Lucilia cuprina Test (LUCICU) Solvent: Dimethyl Sulphoxide To prepare an appropriate active ingredient formulation, 10 mg of active ingredient are mixed with 0.5 ml of dimethyl sulphoxide and the concentrate is diluted with water to the desired concentration. Vessels containing horse meat treated with the active ingredient preparation of the desired concentration are populated with about 20 Lucilia cuprina larvae. After 2 days, the kill in % is determined. 100% means that all of the larvae have been killed; 0% means that none of the larvae have been killed.

In another series the test system is Boophilus microplus. Description: Boophilus microplus test (BOOPMI injection). The format is in vivo. The conditions noted are these: 20 μg/animal, injection into abdomen, after 7 days, laying of fertile eggs. How it is done:
Boophilus microplus Test (BOOPMI Injection) Solvent: Dimethyl Sulphoxide To prepare an appropriate active ingredient formulation, 10 mg of active ingredient are mixed with 0.5 ml of solvent and the concentrate is diluted with solvent to the desired concentration. The active ingredient solution is injected into the abdomen (Boophilus microplus), and the animals are transferred into dishes and stored in a climate-controlled room. The efficacy is assessed by laying of fertile eggs. After 7 days, the efficacy in % is determined. 100% means that none of the ticks has laid any fertile eggs.

The subject of a further series is Ctenocephalides felis. Put plainly: Ctenocephalides felis test (CTECFE). The format is in vivo. The conditions noted are these: 100 ppm in citrated cow's blood, after 2 days. On the procedure: Ctenocephalides felis Test ([…]) Solvent: 1 Part by Weight of Dimethyl Sulphoxide For the purpose of preparing an appropriate active ingredient formulation, 10 mg of active ingredient are mixed with 0.5 ml of dimethyl sulphoxide. A portion of the concentrate is diluted with citrated cow's blood and the desired concentration is established. About 20 unfed adult fleas (Ctenocephalides felis) are introduced into a chamber closed at the top and bottom with gauze. A metal cylinder, the bottom of which is closed with Parafilm, is placed onto the chamber. The cylinder contains the blood/active ingredient preparation, which can be imbibed by the fleas through the Parafilm membrane. After 2 days, the kill in % is determined. 100% means that all fleas have been killed; 0% means that none of the fleas have been killed.

The mark [2] stands for this setting: * LC-MS, acidic range, pH 2.7, 0.1% aqueous formic acid / acetonitrile.

For the compound `CCOc1cc(-c2c(C(F)(F)F)nn(-c3nccnc3OC)c2N)cc(Cl)c1OCC(F)(F)F` [Ex. 144], the efficacy in the series with Phaedon cochleariae, in the series on Tetranychus urticae (500 g/ha) and with Spodoptera frugiperda was 100% throughout. In addition, the “log P” value in series [1] (setting [2]) is on record as 4.21*.

With `COc1nccnc1-n1nc(C(F)(F)F)c(-c2cc(Cl)c(N(C)C)c(C(F)(F)F)c2)c1N` [Ex. 123], the values for the efficacy with Phaedon cochleariae, in the series with Tetranychus urticae (500 g/ha) and in the series with Spodoptera frugiperda were 100%, 80% and 100%, respectively. Also, in series [1] (setting [2]), the “log P” value is given as 4.72*.

`COc1nccnc1-n1nc(C(F)(F)C(F)F)c(-c2cc(Cl)c3c(c2)CCO3)c1N` [Ex. 66]: the figures for the efficacy with Phaedon cochleariae, in the series with Tetranychus urticae (500 g/ha) and with Spodoptera frugiperda were 100%, 90% and 100%, respectively. Further, the “log P” value in series [1] (setting [2]) is listed as 3.22*.

Regarding `COc1nccnc1-n1nc(C(F)(F)F)c(-c2cc(Cl)c3c(c2)COCO3)c1N` [Ex. 135], the “efficacy (kill)” value with Lucilia cuprina larvae and in the series on Ctenocephalides felis was 100% each time. Moreover, the efficacy with Phaedon cochleariae was found to be 100%; with Boophilus microplus, 100%; in the series with Spodoptera frugiperda it was 80%. Besides, the “log P” value in series [1] (setting [2]) was 3.02*.

Take `COc1nccnc1-n1nc(C(F)(F)F)c(-c2cc3c(c(C(F)(F)F)c2)OCCO3)c1N` [Ex. 173]: the efficacy in the series on Phaedon cochleariae is reported as 100%; in the series with Tetranychus urticae (500 g/ha), 90%; with Spodoptera frugiperda, 100%. In series [1] (setting [2]), the “log P” value was 3.27*.

Regarding `COc1nccnc1-n1nc(C(F)(F)F)c(-c2cc(F)c(OC)c(Cl)c2)c1N` [Ex. 124], the efficacy with Phaedon cochleariae is listed as 100%; in the series on Tetranychus urticae (500 g/ha), 90%; in the series on Spodoptera frugiperda it was 100%. The “log P” value in series [1] (setting [2]) is 3.47*; in series [1] (*** LC-MS, neutral range, pH 7.8, 0.001 molar aqueous ammonium hydrogencarbonate / acetonitrile), 3.5***;.

In the case of `COc1nccnc1-n1nc(C(F)(F)C(F)F)c(-c2cc(Cl)c3c(c2)OCO3)c1N` [Ex. 65], the efficacy worked out at 100% with Phaedon cochleariae, 90% in the series on Tetranychus urticae (500 g/ha) and 100% with Spodoptera frugiperda. Besides, the “log P” value in series [1] (setting [2]) is 3.18*.

On to `COc1cc(-c2c(C(F)(F)C(F)F)nn(-c3nccnc3OC)c2N)cc(C(F)(F)F)c1OC` [Ex. 157], for which the efficacy in the series on Phaedon cochleariae, in the series with Tetranychus urticae (500 g/ha) and in the series on Spodoptera frugiperda was 100% in each case. Moreover, the “log P” value in series [1] (setting [2]) is on record as 3.58*.

`COc1nccnc1-n1nc(C(F)(F)C(F)F)c(-c2cc(Cl)c(Cl)c(Cl)c2)c1N` [Ex. 116]: the results for the efficacy in the series on Phaedon cochleariae, in the series with Tetranychus urticae (500 g/ha) and in the series on Spodoptera frugiperda were 100%, 90% and 100%, respectively. Moreover, in series [1] (** acidic range, pH 2.3, 0.1% aqueous phosphoric acid / acetonitrile), the “log P” value is 4.37**.

As for `CCC(OC)c1nn(-c2nccnc2OC)c(N)c1-c1ccc(Cl)c(Cl)c1` (stereo not drawn) [Ex. 3], in the series on Lucilia cuprina larvae, the “efficacy (kill)” value is reported as 100%. Further, the efficacy in the series on Phaedon cochleariae, in the series with Boophilus microplus and with Tetranychus urticae (500 g/ha) was 100% in each case.

As for `CSc1nccnc1-n1nc(C(F)(F)F)c(-c2cc(Cl)cc(C(F)(F)F)c2)c1N` [Ex. 28], the “efficacy (kill)” value with Lucilia cuprina larvae amounted to 100%. Besides, the efficacy with Phaedon cochleariae, with Boophilus microplus and with Spodoptera frugiperda was 100% throughout. The “log P” value in series [1] (setting [2]) is 4.9*.

Take `COc1nccnc1-n1nc(C(F)(F)F)c(-c2cc(Cl)c3c(c2)OCCCO3)c1N` [Ex. 136]: the “efficacy (kill)” value in the series with Lucilia cuprina larvae and in the series on Ctenocephalides felis was 100% throughout. Besides, the efficacy in the series on Phaedon cochleariae and with Boophilus microplus was 100% throughout. Moreover, in series [1] (setting [2]), the “log P” value was 3.25*.

Take `COc1nccnc1-n1nc(C(F)(F)F)c(-c2cc(Cl)c(N(C)C)c(Cl)c2)c1N` [Ex. 121]: the figures for the efficacy in the series on Phaedon cochleariae, with Tetranychus urticae (100 g/ha) and in the series on Spodoptera frugiperda were 100%, 80% and 100%, respectively. Besides, the “log P” value in series [1] (setting [2]) is 4.46*.
